Measurements published in ChEMBL document CHEMBL5614437, “Antibacterial and Anti-Inflammatory Activity of Branched Peptides Derived from Natural Host Defense Sequences” (J Med Chem, 2024).
The source made the active and inactive calls. The rule behind the calls is not given here. Bridges are numbered along the chain shown (N, C = ends). Roman numbers before positions name the chains, in order.

What was measured:
Escherichia coli [1] = test: Antibacterial activity against Escherichia coli TG1 incubated for 12 hrs by microdilution method; format: functional
Escherichia coli [2] = test: Antibacterial activity against Escherichia coli clinical isolate LC711/14 incubated for 12 hrs by microdilution method; format: functional
Pseudomonas aeruginosa [3] = test: Antibacterial activity against Pseudomonas aeruginosa ATCC 27853 incubated for 12 hrs by microdilution method; format: functional
Klebsiella pneumoniae [4] = test: Antibacterial activity against Klebsiella pneumoniae ATCC43816 incubated for 12 hrs by microdilution method; format: functional
Klebsiella pneumoniae [5] = test: Antibacterial activity against colistin-resistant Klebsiella pneumoniae incubated for 12 hrs by microdilution method; format: functional
Enterococcus faecalis = test: Antibacterial activity against Enterococcus faecalis 51299 incubated for 12 hrs by microdilution method; format: functional
Staphylococcus aureus = test: Antibacterial activity against Staphylococcus aureus USA300 incubated for 12 hrs by microdilution method; format: functional
Erythrocyte [6] = test: Hemolytic activity in human RBC assessed as hemolysis at ~15 uM incubated for 2 hrs by absorbance based plate reader analysis; format: toxicity, cell-based
RAW264.7 [7] = test: Cytotoxicity against mouse RAW264.7 cells assessed as cell killing incubated for 4 to 24 hrs by crystal violet staining based analysis; format: toxicity; details: time 4-24 hrs
RAW264.7 [8] = test: Cytotoxicity against mouse RAW264.7 cells assessed as cell death at 1 log concentration incubated for 4 to 24 hrs by crystal violet staining based analysis relative to control; format: toxicity; details: time 4-24 hrs
Lipopolysaccharide (LPS) = test: Binding affinity to biotin-tagged LPS (unknown origin) preincubated for 30 mins followed by compound addition and 30 mins of incubation with streptavidin-POD by ELISA based microplate spectrophotometer; format: subcellular; details: dose 1-10 µg/ml
Cell membrane [9] = test: Induction of cytoplasmic membrane permeabilization in Escherichia coli TG1 assessed as increase in fluorescence at 2 times of MIC measured after 10 mins by PI/Sytox green dye based analysis; format: cell membranes
Cell membrane [10] = test: Induction of cytoplasmic membrane permeabilization in Escherichia coli TG1 assessed as increase in fluorescence incubated for 100 to 120 mins by PI/Sytox green dye based analysis; details: dose 1.5-3 µM, time 100-120 min
Cell membrane [11] = test: Induction of cytoplasmic membrane permeabilization in Escherichia coli TG1 assessed as increase in fluorescence at MIC measured after 40 to 50 mins by PI/Sytox green dye based analysis; details: time 40-50 min
Cell membrane [12] = test: Induction of cytoplasmic membrane permeabilization in Escherichia coli TG1 assessed as wrinkling of membrane surface at 2 times of MIC measured after 30 to 60 mins by SEM analysis; details: time 30-60 min
Cell membrane [13] = test: Induction of cytoplasmic membrane permeabilization in Escherichia coli TG1 assessed as enlargement of bacterial cells at 2 times of MIC measured after 30 to 60 mins by SEM analysis; format: cell membranes; details: time 30-60 min
Cell membrane [14] = test: Induction of cytoplasmic membrane permeabilization in Escherichia coli TG1 assessed as loss of surface smoothness at 2 times of MIC measured after 30 to 60 mins by SEM analysis; details: time 30-60 min
[15] = Stability of compound in human serum at 180 uM measured after 4 hrs by HPLC-MS analysis; format: ADME, cell-free
[16] = Stability of compound in human serum at 180 uM measured after 24 hrs by HPLC-MS analysis; format: ADME, cell-free
Escherichia coli [17] = test: Antibiofilm activity against Escherichia coli TG1 assessed as inhibition of biofilm formation incubated for 24 hrs by absorbance based analysis; format: functional
Klebsiella pneumoniae [18] = test: Antibiofilm activity against Klebsiella pneumoniae ATCC43816 assessed as inhibition of biofilm formation incubated for 24 hrs by absorbance based analysis; format: functional
Escherichia coli [19] = test: Antibiofilm activity against 24 hrs preformed biofilm in Escherichia coli TG1 assessed as reduction in preformed biofilm incubated for 14 hrs by absorbance based analysis; format: functional
Klebsiella pneumoniae [20] = test: Antibiofilm activity against 24 hrs preformed biofilm in Klebsiella pneumoniae ATCC43816 assessed as reduction in preformed biofilm incubated for 14 hrs by absorbance based analysis; format: functional
[21] = Selectivity ratio of biofilm prevention concentration for antibiofilm activity against Escherichia coli TG1 to MIC for antibacterial activity against Escherichia coli TG1; format: functional
Pseudomonas aeruginosa [22] = test: Antibacterial activity against Pseudomonas aeruginosa clinical isolate FI-25 expressing VIM-1 metallo-beta-lactamase incubated for 12 hrs by microdilution method; format: functional
Pseudomonas aeruginosa [23] = test: Antibacterial activity against Pseudomonas aeruginosa clinical isolate FI-29 expressing GES-5 beta-lactamase incubated for 12 hrs by microdilution method; format: functional
Enterococcus faecium = test: Antibacterial activity against vancomycin-resistant Enterococcus faecium clinical isolate FI-48 incubated for 12 hrs by microdilution method; format: functional
Erythrocyte [24] = test: Hemolytic activity in human RBC assessed as hemolysis at 5 uM incubated for 2 hrs by absorbance based plate reader analysis; format: toxicity, cell-based
Cell membrane [25] = test: Disruption of outer membrane integrity in Escherichia coli TG1 assessed as loss of double layer integrity measured after 60 mins by TEM analysis
Cell membrane [26] = test: Disruption of outer membrane integrity in Escherichia coli TG1 assessed as formation of blisters outside the cell measured after 60 mins by TEM analysis; format: cell membranes
Escherichia coli [27] = test: Antibacterial activity against Escherichia coli TG1 transfected with pGEN-luxCDABE plasmid infected in female BALB/C mouse model of skin infection assessed as reduction in bacterial burden at 16 mg/kg, SC pre-infected with bacteria for 2 hrs followed by compound administration and measured on day 2 by luminescence imaging analysis relative to control; format: functional; design: scale not given: the % may be the effect or the level left; details: time 2 day
Escherichia coli [28] = test: Antibacterial activity against Escherichia coli TG1 transfected with pGEN-luxCDABE plasmid infected in female BALB/C mouse model of skin infection assessed as reduction in bacterial burden at 16 mg/kg, SC pre-infected with bacteria for 2 hrs followed by compound administration and measured after 2 to 3 days by luminescence imaging analysis; format: functional, organism-based; details: time 2-3 day
Mus musculus = test: Anti-inflammatory activity in female BALB/C skin infection mouse model infected with Escherichia coli TG1 transfected with pGEN-luxCDABE plasmid assessed as reduction in monocyte number in skin at 16 mg/kg, SC pre-infected with bacteria for 2 hrs followed by compound administration and measured after 3 days by DAPI staining based immunohistochemical analysis; format: functional, organism-based; details: time 3.0 day
Erythrocyte [29] = test: Hemolytic activity in human RBC assessed as hemolysis at 10 times of MIC incubated for 2 hrs by absorbance based plate reader analysis; format: toxicity, cell-based
RAW264.7 [30] = test: Cytotoxicity against mouse RAW264.7 cells assessed as cell killing at 200 uM incubated for 4 to 24 hrs by crystal violet staining based analysis relative to control; format: toxicity; details: raw264.7, 200 µM, time 4-24 hrs
Erythrocyte [31] = test: Hemolytic activity in human RBC assessed as hemolysis at 0.25 to 100 uM incubated for 2 hrs by absorbance based plate reader analysis; format: toxicity, cell-based; details: dose 0.25-100 µM
[32] = Selectivity ratio of MBIC80 for antibiofilm activity against preformed biofilm in Escherichia coli TG1 to MIC for antibacterial activity against Escherichia coli TG1; format: functional

Substance	MIC (Escherichia coli [1])	MIC (Escherichia coli [2])	MIC (Pseudomonas aeruginosa [3])	MIC (Klebsiella pneumoniae [4])	MIC (Klebsiella pneumoniae [5])	MIC (Enterococcus faecalis)	MIC (Staphylococcus aureus)	LC50 (RAW264.7 [7])	Activity (RAW264.7 [8])	Activity (Lipopolysaccharide (LPS))	Activity (Cell membrane [9])	Activity (Cell membrane [10])	Activity (Cell membrane [11])	Activity (Cell membrane [12])	Activity (Cell membrane [13])	Activity (Cell membrane [14])	Stability [15]	Stability [16]	MBIC80 (Escherichia coli [19])	MBIC80 (Klebsiella pneumoniae [20])	further results
I: H-GRFKRFRKKLKK-NH2 / II: H-GRFKRFRKKLK / III: H-GRFKRFRKKL / IV: H-GRFKRFRKKL (amide I:11-IV:C, I:12-II:C, II:11-III:C)	6 µM	> 25 µM	6 µM	25 µM	> 25 µM	> 25 µM	> 25 µM	1.258 10^-5M	100%	Dose-Dependent Effect	Active	Dose-Dependent Effect	Active	Active	Active	Active	Stable	Unstable	50 µM	50 µM	Activity (Erythrocyte [6]): Toxic; IC20 (Escherichia coli [17]): 25 µM; IC20 (Klebsiella pneumoniae [18]): 50 µM; Selectivity ratio [21]: 4
I: H-TLLKKVLKAAAKKK-NH2 / II: H-TLLKKVLKAAAKK / III: H-TLLKKVLKAAAK / IV: H-TLLKKVLKAAAK (amide I:13-IV:C, I:14-II:C, II:13-III:C)	1.5 µM	3 µM	6 µM	6 µM	6 µM	25 µM	> 25 µM	4.405 10^-7M	100%	Dose-Dependent Effect	Active	Dose-Dependent Effect	Active	Active	Active	Active	Stable	Stable	3 µM	50 µM	MIC (Pseudomonas aeruginosa [22]): 12 µM; MIC (Pseudomonas aeruginosa [23]): 12 µM; MIC (Enterococcus faecium): 6 µM; Activity (Erythrocyte [24]): Toxic; Activity (Cell membrane [25]): Active; Activity (Cell membrane [26]): Active; IC20 (Escherichia coli [17]): 1.5 µM; IC20 (Klebsiella pneumoniae [18]): 50 µM; Activity (Escherichia coli [27]): 75%; Activity (Escherichia coli [28]): Active; Activity (Mus musculus): Active
I: H-LLKKVLKAAAKKK-NH2 / II: H-LLKKVLKAAAKK / III: H-LLKKVLKAAAK / IV: H-LLKKVLKAAAK (amide I:12-IV:C, I:13-II:C, II:12-III:C)	1.5 µM	6 µM	6 µM	12.5 µM	> 25 µM	> 25 µM	> 25 µM			Dose-Dependent Effect	Active	Dose-Dependent Effect	Active	Active	Active	Active	Stable	Stable	50 µM	50 µM	Activity (Erythrocyte [29]): Non-Toxic; Activity (RAW264.7 [30]): 100%; IC20 (Escherichia coli [17]): 6 µM; IC20 (Klebsiella pneumoniae [18]): > 50 µM
I: H-KKLLGKNWKLMKK-NH2 / II: H-KKLLGKNWKLMK / III: H-KKLLGKNWKLM / IV: H-KKLLGKNWKLM (amide I:12-IV:C, I:13-II:C, II:12-III:C)	3 µM	> 25 µM	3 µM	25 µM	> 25 µM	> 25 µM	> 25 µM	1 10^-5M	100%	Dose-Dependent Effect	Active	Dose-Dependent Effect	Active	Active	Active	Active	Stable	Stable	25 µM	50 µM	Activity (Erythrocyte [31]): Non-Toxic; Selectivity ratio [32]: 8
